Earlier results as cited in US20210215697A1, “Serum Biomarkers” (BerGenBio ASA, priority 2018, published 2021).

What was measured:
OCI-AML5 cells = details: Ben-Batalla et al, 2013

| Compound | IC50 to Axl inhibitors (in words) (OCI-AML5 cells) | IC50 to Axl inhibitors (in words) (MOLM13 cell line; MOLM13, Ben-Batalla et al, 2013) | IC50 to Axl inhibitors (in words) (OCI-M1 cell line; OCI-M1, Ben-Batalla et al, 2013) | IC50 to Axl inhibitors (in words) (Kasumi cell line; Ben-Batalla et al, 2013) | IC50 to Axl inhibitors (in words) (Mv4-11 cell line; Mv4-11, Ben-Batalla et al, 2013) | IC50 (MOLM13 cell line; MOLM13, "responder" AML cell line) | IC50 (OCI-M1 cell line; OCI-M1, "non-responder" AML cell line) | IC50 (Kasumi cell line; "non-responder" AML cell line) | IC50 (Mv4-11 cell line; Mv4-11, "responder" AML cell line) |
| --- | --- | --- | --- | --- | --- | --- | --- | --- | --- |
| Nc1nc(Nc2ccc3c(c2)CC[C@@H](N2CCCC2)CC3)nn1-c1cc2c(nn1)-c1ccccc1CCC2 [BGB324, 1-(6,7-dihydro-5H-benzo[6,7]cyclohepta[1,2-c]pyridazin-3-yl)-N3-((7-(S)-pyrrolidin-1-yl)-6,7,8,9-tetrahydro-5H-benzo[7]annulene-2-yl)-1H-1,2,4-triazole-3,5-diamine] | high | low | high | high | low | – | – | – | – |
| Nc1nc(Nc2ccc3c(c2)CC[C@@H](N2CCCC2)CC3)nn1-c1cc2c(nn1)-c1ccccc1CCC2 [BGB324/R428/bemcentinib, bemcentinib] | – | – | – | – | – | 450 nM | 1800 nM | 1200 nM | 140 nM |
